Test results taken from patent publication US20250090510A1, “eIF4G1-eIF1 INHIBITORS AND USE THEREOF” (YEDA RESEARCH AND DEVELOPMENT CO. LTD., priority 2022, published 2025).

Biological target: T1, eIF1-eIF4G1 complex (Homo sapiens, UniProt Q04637)
T1 construct: co-immunoprecipitation of endogenous eIF4G1 in HEK293T cells expressing HA-eIF1 or HA-eIF4E was performed; endogenous in cells; host or cells: HEK293T (eIF4G1 endogenous; HA-eIF1 transfected)
Experiment: Co-immunoprecipitation of endogenous eIF4G1 with HA-eIF1
Type: cell-based
Conditions: HEK293T; i14G1-10 20 μM, i14G1-12 10 μM; 4 h
Method: FIGS. 2A-C: The effect of i14G1-10 and i14G1-12 on eIF1-eIF4G1 and eIF4E-eIF4G1 complexes. (2A-B) HA-eIF1 and HA-eIF4E were each transfected into HEK293T cells and 48 h after transfection cells were treated with DMSO or i14G1-10 (2A) or i14G1-12 (2B) for 4 h, followed by immunoprecipitation of HA-eIF1 or HA-eIF4E using anti-HA-agarose beads. Western blot was run to check co-immunoprecipitation of endogenous eIF4G1 with HA-eIF1 or HA-eIF4E. The graphs represent the co-immunoprecipitation of eIF4G1 with HA-eIF1 (right) or HA-eIF4E (left). Co—IP data shown as mean±SEM of 4-7 independent experiments. The asterisks denote statistically significant difference compared to DMSO, according to Student's t-tests (one-tailed, paired). *p<0.05. (2C) HEK293T cells were treated with DMSO, i14G1-10, or i14G1-12 for 4 h, followed by cell lysis. Respective cell lysates were incubated with cap analog (γ-Aminohexyl-m7GTP) beads for 2 h to precipitate bound eIF4E. Western blot was performed to check co-precipitation of eIF4G1 along with eIF4E on the cap-analog beads. The graph represents the binding fraction of eIF4G1 and eIF4E to the cap-analog beads (mean±SEM) with DMSO (black), i14G1-10 (blue), and i14G1-12 (red), n=6. The asterisks denote statistically significant difference compared to DMSO, according to Student's t-tests (one-tailed, paired). *p<0.05; **p<0.01.
Co-immunoprecipitation. HEK293T cells were transfected with 5 μg of HA-eIF1 or HA-eIF4E plasmids along with 10 ng GFP plasmid to check for transfection efficiency using Jetprime reagent as per manufacturer's protocol. After 48 h, HA-eIF1 and HA-eIF4E expressing HEK293T cells were incubated with DMSO, i14G1-10 (20 μM), and […] (10 μM). 4 h later, cells were lysed using IP buffer (20 mM Tris pH8, 125 mM NaCl, 10% glycerol, 50 mM NaF, 1 mM […], 0.5% NP-40, and 0.2 mM EDTA) supplemented with fresh protease inhibitor cocktail (1:100) and PMSF 200 μM (1:100). Protein extract was taken for immunoprecipitation using either monoclonal anti-HA-agarose antibody (Sigma) or control IgG antibody in IP buffer, at 4° C. for 2 hours. […]

T1 sequence (Q04637 whole entry, one chain of several): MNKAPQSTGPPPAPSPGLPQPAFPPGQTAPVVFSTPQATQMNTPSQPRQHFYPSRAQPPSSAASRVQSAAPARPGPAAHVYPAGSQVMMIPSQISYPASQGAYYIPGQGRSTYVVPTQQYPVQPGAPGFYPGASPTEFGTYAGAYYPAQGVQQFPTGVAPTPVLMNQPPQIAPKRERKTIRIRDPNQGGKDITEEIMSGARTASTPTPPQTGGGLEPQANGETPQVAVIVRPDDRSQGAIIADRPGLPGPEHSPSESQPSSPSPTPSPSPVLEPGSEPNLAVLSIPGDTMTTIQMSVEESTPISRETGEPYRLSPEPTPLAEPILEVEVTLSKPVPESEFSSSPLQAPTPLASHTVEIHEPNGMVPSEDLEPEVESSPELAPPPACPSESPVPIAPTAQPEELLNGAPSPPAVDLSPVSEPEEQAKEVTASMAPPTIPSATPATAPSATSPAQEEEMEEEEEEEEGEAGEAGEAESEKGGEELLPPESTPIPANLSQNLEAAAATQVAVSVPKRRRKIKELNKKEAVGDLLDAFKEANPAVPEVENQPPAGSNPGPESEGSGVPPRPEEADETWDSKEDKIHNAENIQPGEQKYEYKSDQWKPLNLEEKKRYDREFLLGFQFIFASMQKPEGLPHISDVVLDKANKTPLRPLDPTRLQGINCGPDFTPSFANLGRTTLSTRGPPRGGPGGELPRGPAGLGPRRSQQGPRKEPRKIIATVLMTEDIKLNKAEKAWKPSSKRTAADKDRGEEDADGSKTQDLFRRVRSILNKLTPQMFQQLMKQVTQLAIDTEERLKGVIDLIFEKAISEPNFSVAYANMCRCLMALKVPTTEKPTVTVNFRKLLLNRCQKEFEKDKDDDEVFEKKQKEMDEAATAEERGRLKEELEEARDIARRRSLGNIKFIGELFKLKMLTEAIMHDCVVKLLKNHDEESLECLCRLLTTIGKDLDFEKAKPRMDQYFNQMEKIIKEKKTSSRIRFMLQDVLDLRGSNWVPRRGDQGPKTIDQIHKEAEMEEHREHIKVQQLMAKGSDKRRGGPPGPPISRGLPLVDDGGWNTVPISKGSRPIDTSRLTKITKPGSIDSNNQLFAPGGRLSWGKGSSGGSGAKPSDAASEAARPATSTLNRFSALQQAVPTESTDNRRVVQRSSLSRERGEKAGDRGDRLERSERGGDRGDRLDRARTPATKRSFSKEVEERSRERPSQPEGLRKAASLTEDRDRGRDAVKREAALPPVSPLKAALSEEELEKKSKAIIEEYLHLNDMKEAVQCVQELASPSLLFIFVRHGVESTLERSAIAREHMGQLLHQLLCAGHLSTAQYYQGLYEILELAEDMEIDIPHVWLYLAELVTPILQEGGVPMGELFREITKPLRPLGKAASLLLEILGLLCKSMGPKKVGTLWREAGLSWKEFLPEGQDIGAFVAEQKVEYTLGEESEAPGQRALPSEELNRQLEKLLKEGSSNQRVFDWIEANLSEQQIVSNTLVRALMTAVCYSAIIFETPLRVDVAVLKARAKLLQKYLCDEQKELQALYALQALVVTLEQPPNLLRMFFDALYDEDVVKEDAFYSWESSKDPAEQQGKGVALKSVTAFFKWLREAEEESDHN

Row | Compound | reduction in eIF4G1 binding to HA-eIF1
1 | O=C(/C=C/Sc1ccc(C(F)(F)F)cn1)c1ccccc1 [i14G1-10] | 50%
2 | Cn1ccnc1S/C(=C/C=C(C#N)C#N)c1ccc(Cl)cc1 [i14G1-12] | 25%
